Experimental data: ChEMBL document CHEMBL2010722, “Structure-activity relationship study of beta-carboline derivatives as haspin kinase inhibitors” (Bioorg Med Chem Lett, 2012)

Columns and labels:
[1] = target: Phosphorylase b kinase gamma catalytic chain, liver/testis isoform (Homo sapiens) (UniProt P15735); assay: Inhibition of PHKG2 at 10 uM
[2] = target: Serine/threonine-protein kinase LATS2 (Homo sapiens) (UniProt Q9NRM7); assay: Inhibition of LATS2 at 10 uM
[3] = target: Phosphorylase b kinase gamma catalytic chain, skeletal muscle/heart isoform (Homo sapiens) (UniProt Q16816); assay: Inhibition of PHKG1 at 10 uM
[4] = target: Aurora kinase B/Inner centromere protein (Homo sapiens) (UniProt Q96GD4+Q9NQS7); assay: Inhibition of AurB-INCENP at 10 uM; format: protein-complex assay
[5] = target: Serine/threonine-protein kinase MARK1 (Homo sapiens) (UniProt Q9P0L2); assay: Inhibition of MARK1 at 10 uM
[6] = target: Protein-tyrosine kinase 6 (Homo sapiens) (UniProt Q13882); assay: Inhibition of BRK at 10 uM
[7] = target: Ephrin type-A receptor 7 (Homo sapiens) (UniProt Q15375); assay: Inhibition of EPHA7 at 10 uM
[8] = target: Protein kinase C iota type (Homo sapiens) (UniProt P41743); assay: Inhibition of PKCi at 10 uM
[9] = target: CDC7/DBF4 (Cell division cycle 7-related protein kinase/Activator of S phase kinase) (Homo sapiens) (UniProt Q9UBU7+O00311); assay: Inhibition of CDC7-Dbf4 at 10 uM; format: protein-complex assay
[10] = target: Hepatocyte growth factor receptor (Homo sapiens) (UniProt P08581); assay: Inhibition of MET at 10 uM
Chain of Hepatocyte growth factor receptor (Homo sapiens) (P08581 whole entry): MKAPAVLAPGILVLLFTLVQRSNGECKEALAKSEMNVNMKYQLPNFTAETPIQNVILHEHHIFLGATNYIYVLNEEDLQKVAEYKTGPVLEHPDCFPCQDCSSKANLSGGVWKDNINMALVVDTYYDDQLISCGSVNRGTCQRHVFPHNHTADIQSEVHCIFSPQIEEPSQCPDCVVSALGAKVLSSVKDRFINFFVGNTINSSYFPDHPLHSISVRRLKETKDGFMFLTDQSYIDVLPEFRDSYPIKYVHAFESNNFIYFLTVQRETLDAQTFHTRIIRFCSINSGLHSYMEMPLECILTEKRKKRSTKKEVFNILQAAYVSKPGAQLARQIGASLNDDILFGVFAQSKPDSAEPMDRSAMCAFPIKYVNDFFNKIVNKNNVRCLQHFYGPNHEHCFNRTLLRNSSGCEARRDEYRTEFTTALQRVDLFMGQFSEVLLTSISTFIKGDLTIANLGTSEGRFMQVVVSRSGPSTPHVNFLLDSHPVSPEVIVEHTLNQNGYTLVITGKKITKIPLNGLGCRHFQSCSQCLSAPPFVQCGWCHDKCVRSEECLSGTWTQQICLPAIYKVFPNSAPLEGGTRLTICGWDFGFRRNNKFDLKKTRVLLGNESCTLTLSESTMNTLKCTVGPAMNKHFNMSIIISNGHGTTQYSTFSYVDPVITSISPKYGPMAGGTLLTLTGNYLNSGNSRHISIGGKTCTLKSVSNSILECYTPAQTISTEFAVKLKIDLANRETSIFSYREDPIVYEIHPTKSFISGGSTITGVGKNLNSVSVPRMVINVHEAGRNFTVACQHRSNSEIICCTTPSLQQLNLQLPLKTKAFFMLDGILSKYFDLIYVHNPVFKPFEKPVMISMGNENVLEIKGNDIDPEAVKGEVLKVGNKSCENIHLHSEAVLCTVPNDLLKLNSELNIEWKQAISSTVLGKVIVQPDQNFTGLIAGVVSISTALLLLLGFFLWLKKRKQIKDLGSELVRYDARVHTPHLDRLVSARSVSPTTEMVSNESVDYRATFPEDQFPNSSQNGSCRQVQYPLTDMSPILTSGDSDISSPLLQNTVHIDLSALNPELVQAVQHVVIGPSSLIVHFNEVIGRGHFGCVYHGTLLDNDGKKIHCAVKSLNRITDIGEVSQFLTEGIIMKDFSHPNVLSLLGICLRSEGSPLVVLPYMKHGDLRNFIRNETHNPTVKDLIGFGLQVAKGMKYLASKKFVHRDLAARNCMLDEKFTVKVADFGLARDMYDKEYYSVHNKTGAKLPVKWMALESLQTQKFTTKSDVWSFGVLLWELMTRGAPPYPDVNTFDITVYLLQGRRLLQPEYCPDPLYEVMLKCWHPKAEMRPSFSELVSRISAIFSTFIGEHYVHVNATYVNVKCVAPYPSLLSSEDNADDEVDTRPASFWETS

[11] = target: Serine/threonine-protein kinase PLK1 (Homo sapiens) (UniProt P53350); assay: Inhibition of PLK1 at 10 uM
[12] = target: Ephrin type-A receptor 2 (Homo sapiens) (UniProt P29317); assay: Inhibition of EPHA2 at 10 uM
[13] = target: Mitogen-activated protein kinase 7 (Homo sapiens) (UniProt Q13164); assay: Inhibition of Erk5 at 10 uM
[14] = system: Mast/stem cell growth factor receptor Kit (Homo sapiens), P10721 [V654A]; assay: Inhibition of KIT V654A mutant at 10 uM
[15] = target: Mitogen-activated protein kinase kinase kinase 1 (Homo sapiens) (UniProt Q13233); assay: Inhibition of MAP3K1 at 10 uM
[16] = target: Inhibitor of nuclear factor kappa-B kinase subunit alpha (Homo sapiens) (UniProt O15111); assay: Inhibition of IKKa at 10 uM
[17] = target: Proto-oncogene tyrosine-protein kinase receptor Ret (Homo sapiens) (UniProt P07949); assay: Inhibition of RET at 10 uM
[18] = system: Mast/stem cell growth factor receptor Kit (Homo sapiens), P10721 [D816V]; assay: Inhibition of KIT D816V mutant at 10 uM
[19] = target: Leukocyte tyrosine kinase receptor (Homo sapiens) (UniProt P29376); assay: Inhibition of LTK at 10 uM
[20] = target: Serine/threonine-protein kinase Nek7 (Homo sapiens) (UniProt Q8TDX7); assay: Inhibition of NEK7 at 10 uM
Chain of Serine/threonine-protein kinase Nek7 (Homo sapiens) (Q8TDX7 whole entry, looked up): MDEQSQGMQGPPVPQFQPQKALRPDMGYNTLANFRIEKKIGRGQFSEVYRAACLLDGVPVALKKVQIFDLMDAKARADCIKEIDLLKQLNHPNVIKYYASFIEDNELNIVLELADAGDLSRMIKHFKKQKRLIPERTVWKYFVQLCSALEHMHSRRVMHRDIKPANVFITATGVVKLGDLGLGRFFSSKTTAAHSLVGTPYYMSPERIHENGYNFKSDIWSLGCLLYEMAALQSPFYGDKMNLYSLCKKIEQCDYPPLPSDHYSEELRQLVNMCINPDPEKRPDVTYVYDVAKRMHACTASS

[21] = target: Death-associated protein kinase 1 (Homo sapiens) (UniProt P53355); assay: Inhibition of DAPK1 at 10 uM
[22] = target: Rho-associated protein kinase 1 (Homo sapiens) (UniProt Q13464); assay: Inhibition of ROCK1 at 10 uM
[23] = target: Epithelial discoidin domain-containing receptor 1 (Homo sapiens) (UniProt Q08345); assay: Inhibition of DDR1 at 10 uM
[24] = target: Activated CDC42 kinase 1 (Homo sapiens) (UniProt Q07912); assay: Inhibition of TNK2 at 10 uM
Chain of Activated CDC42 kinase 1 (Homo sapiens) (Q07912 whole entry, looked up): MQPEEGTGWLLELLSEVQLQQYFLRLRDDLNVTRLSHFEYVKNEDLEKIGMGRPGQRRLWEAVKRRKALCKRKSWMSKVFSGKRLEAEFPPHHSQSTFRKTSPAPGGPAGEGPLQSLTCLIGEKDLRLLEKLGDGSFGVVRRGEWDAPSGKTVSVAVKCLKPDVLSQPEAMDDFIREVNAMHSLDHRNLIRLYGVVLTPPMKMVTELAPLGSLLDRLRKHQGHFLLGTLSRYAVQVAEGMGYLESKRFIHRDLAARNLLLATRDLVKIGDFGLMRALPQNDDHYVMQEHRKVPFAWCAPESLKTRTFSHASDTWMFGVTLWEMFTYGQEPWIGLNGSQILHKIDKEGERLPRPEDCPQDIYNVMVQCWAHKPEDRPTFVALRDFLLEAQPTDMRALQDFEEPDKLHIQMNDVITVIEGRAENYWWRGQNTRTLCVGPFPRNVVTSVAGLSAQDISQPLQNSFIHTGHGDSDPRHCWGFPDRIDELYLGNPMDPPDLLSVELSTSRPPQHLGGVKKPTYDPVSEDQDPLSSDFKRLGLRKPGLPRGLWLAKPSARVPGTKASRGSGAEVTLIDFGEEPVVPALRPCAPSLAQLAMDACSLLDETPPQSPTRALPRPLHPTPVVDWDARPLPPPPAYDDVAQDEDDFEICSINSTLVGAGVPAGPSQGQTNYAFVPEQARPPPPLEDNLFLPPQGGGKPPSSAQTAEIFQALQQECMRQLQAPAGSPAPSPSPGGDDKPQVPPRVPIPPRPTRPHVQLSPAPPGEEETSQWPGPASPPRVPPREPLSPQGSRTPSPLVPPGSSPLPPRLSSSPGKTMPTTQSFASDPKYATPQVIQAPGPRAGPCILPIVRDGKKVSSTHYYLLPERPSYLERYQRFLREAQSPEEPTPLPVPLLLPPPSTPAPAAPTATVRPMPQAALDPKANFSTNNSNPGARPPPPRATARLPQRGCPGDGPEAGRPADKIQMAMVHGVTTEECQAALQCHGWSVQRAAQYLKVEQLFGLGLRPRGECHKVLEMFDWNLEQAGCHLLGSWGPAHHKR

[25] = target: CDK6/cyclin D3 (Homo sapiens) (UniProt P30281+Q00534); assay: Inhibition of CDK6-CycD3 at 10 uM; format: protein-complex assay
[26] = target: Serine/threonine-protein kinase 26 (Homo sapiens) (UniProt Q9P289); assay: Inhibition of MST4 at 10 uM
[27] = target: Mitogen-activated protein kinase 1 (Homo sapiens) (UniProt P28482); assay: Inhibition of Erk2 at 10 uM
Chain of Mitogen-activated protein kinase 1 (Homo sapiens) (P28482 whole entry): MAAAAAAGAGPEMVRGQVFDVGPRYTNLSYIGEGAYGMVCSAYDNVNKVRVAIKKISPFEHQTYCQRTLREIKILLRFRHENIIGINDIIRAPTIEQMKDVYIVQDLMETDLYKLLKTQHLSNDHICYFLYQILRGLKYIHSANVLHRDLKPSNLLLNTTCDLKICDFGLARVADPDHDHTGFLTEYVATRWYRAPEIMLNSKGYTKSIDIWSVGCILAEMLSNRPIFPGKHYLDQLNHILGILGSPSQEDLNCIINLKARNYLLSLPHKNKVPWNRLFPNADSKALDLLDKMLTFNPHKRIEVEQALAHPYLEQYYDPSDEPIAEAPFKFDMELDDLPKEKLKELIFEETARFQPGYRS

[28] = target: Tyrosine-protein kinase JAK1 (Homo sapiens) (UniProt P23458); assay: Inhibition of JAK1 at 10 uM
[29] = target: Rho-associated protein kinase 2 (Homo sapiens) (UniProt O75116); assay: Inhibition of ROCK2 at 10 uM
[30] = system: Platelet-derived growth factor receptor alpha (Homo sapiens), P16234 [T674I]; assay: Inhibition of PDGFRa T674I mutant at 10 uM
Chain of Platelet-derived growth factor receptor alpha (Homo sapiens), P16234 [T674I] (P16234 whole entry T674I): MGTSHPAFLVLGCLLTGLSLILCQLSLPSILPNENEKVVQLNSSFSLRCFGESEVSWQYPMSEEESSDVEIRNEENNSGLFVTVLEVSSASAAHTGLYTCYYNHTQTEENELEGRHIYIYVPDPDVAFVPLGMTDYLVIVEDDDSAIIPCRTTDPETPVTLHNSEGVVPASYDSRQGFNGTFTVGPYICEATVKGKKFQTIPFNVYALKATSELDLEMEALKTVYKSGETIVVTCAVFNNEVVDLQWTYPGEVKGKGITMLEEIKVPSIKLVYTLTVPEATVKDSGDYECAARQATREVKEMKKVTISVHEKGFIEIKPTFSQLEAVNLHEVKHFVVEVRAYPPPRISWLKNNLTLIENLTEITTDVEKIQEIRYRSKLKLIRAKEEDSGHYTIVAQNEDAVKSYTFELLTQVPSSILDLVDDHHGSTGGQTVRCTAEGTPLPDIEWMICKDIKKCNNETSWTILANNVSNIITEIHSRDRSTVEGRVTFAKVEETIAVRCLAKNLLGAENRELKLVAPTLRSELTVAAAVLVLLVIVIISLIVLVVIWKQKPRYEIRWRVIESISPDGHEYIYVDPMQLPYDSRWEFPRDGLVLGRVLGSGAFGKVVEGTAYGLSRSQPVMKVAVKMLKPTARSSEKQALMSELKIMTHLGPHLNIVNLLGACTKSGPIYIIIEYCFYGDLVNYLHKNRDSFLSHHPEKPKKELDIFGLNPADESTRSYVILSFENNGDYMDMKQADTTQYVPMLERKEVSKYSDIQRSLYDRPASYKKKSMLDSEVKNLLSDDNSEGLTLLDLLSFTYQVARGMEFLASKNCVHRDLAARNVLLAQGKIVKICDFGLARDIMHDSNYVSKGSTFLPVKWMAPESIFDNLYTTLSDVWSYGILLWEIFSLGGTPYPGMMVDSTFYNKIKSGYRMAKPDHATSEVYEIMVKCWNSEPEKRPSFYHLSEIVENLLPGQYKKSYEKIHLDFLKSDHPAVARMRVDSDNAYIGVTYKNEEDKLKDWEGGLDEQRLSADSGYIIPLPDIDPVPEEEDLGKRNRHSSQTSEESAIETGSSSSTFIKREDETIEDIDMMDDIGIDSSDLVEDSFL

[31] = target: Tyrosine-protein kinase receptor UFO (Homo sapiens) (UniProt P30530); assay: Inhibition of AXL at 10 uM
Chain of Tyrosine-protein kinase receptor UFO (Homo sapiens) (P30530 whole entry): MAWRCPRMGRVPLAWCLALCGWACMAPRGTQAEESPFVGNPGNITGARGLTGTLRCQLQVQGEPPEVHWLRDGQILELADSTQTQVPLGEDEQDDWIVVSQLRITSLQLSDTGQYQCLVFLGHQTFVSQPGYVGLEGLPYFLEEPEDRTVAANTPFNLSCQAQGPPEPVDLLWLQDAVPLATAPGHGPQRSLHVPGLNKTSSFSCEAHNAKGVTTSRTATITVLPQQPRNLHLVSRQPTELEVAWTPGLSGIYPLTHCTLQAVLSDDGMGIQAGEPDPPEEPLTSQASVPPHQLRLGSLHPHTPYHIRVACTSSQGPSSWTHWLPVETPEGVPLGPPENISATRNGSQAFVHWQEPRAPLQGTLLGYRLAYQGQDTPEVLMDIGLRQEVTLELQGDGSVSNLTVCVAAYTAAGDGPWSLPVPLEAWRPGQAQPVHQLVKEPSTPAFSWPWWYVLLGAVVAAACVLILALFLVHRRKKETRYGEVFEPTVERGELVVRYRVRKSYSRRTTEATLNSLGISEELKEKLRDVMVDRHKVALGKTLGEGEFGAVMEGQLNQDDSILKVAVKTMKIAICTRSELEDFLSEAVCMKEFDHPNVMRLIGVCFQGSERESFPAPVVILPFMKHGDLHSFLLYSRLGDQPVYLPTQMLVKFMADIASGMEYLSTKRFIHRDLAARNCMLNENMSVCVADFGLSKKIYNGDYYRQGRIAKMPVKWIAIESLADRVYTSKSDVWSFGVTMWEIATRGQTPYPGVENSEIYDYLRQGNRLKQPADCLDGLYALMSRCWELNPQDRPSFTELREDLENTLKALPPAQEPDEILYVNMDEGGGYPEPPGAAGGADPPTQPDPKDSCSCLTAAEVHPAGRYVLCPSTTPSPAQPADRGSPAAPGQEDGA

[32] = target: Serine/threonine-protein kinase PAK 2 (Homo sapiens) (UniProt Q13177); assay: Inhibition of PAK2 at 10 uM
[33] = target: Protein kinase C zeta type (Homo sapiens) (UniProt Q05513); assay: Inhibition of PKCzeta at 10 uM
[34] = target: Tyrosine-protein kinase FRK (Homo sapiens) (UniProt P42685); assay: Inhibition of FRK at 10 uM
[35] = target: Calcium/calmodulin-dependent protein kinase type 1 (Homo sapiens) (UniProt Q14012); assay: Inhibition of CaMK1alpha at 10 uM
[36] = target: Protein kinase C beta type (Homo sapiens) (UniProt P05771); assay: Inhibition of PKCbeta1 at 10 uM
[37] = target: Tyrosine-protein kinase JAK3 (Homo sapiens) (UniProt P52333); assay: Inhibition of JAK3 at 10 uM
[38] = target: Interleukin-1 receptor-associated kinase 1 (Homo sapiens) (UniProt P51617); assay: Inhibition of IRAK1 at 10 uM
[39] = target: Protein kinase C delta type (Homo sapiens) (UniProt Q05655); assay: Inhibition of PKCdelta at 10 uM
[40] = target: Ephrin type-A receptor 1 (Homo sapiens) (UniProt P21709); assay: Inhibition of EPHA1 at 10 uM
[41] = system: Tyrosine-protein kinase ABL1 (Homo sapiens), P00519 [T315I]; assay: Inhibition of ABL T315I mutant at 10 uM
[42] = target: NT-3 growth factor receptor (Homo sapiens) (UniProt Q16288); assay: Inhibition of TRKC at 10 uM
[43] = target: Ephrin type-B receptor 2 (Homo sapiens) (UniProt P29323); assay: Inhibition of EPHB2 at 10 uM
[44] = target: Tyrosine-protein kinase Tec (Homo sapiens) (UniProt P42680); assay: Inhibition of TEC at 10 uM
[45] = target: Serine/threonine-protein kinase WNK1 (Homo sapiens) (UniProt Q9H4A3); assay: Inhibition of WNK1 at 10 uM
[46] = target: Myosin light chain kinase 2, skeletal/cardiac muscle (Homo sapiens) (UniProt Q9H1R3); assay: Inhibition of skMLCK at 10 uM

COc1ccc2c3ccnc(C(F)(F)F)c3n(CCCCN)c2c1
inhibition [1]: 26%
inhibition [2]: 26%
inhibition [3]: 49%
inhibition [4]: 5%
inhibition [5]: 48%
inhibition [6]: 1%
inhibition [7]: 2%
inhibition [8]: 9%
inhibition [9]: 14%
inhibition [10]: 4%
inhibition [11]: 0%
inhibition [12]: 0%
inhibition [13]: 21%
inhibition [14]: 5%
inhibition [15]: 0%
inhibition [16]: 7%
inhibition [17]: 11%
inhibition [18]: 32%
inhibition [19]: 5%
inhibition [20]: 0%
inhibition [21]: 41%
inhibition [22]: 84%
inhibition [23]: 8%
inhibition [24]: 0%
inhibition [25]: 28%
inhibition [26]: 0%
inhibition [27]: 7%
inhibition [28]: 0%
inhibition [29]: 87%
inhibition [30]: 49%
inhibition [31]: 34%
inhibition [32]: 13%
inhibition [33]: 35%
inhibition [34]: 10%
inhibition [35]: 14%
inhibition [36]: 35%
inhibition [37]: 4%
inhibition [38]: 53%
inhibition [39]: 68%
inhibition [40]: 4%
inhibition [41]: 0%
inhibition [42]: 25%
inhibition [43]: 0%
inhibition [44]: 2%
inhibition [45]: 5%
inhibition [46]: 34%
